Laboratory results published in patent US9302999B2, “Substituted triazoles as herbicides” (E. I. DU PONT DE NEMOURS AND COMPANY, priority 2012, dated 2016).

Legend:
Type in all cases: in vivo
[1] = tested on: foxtail, giant (giant foxtail, Setaria faberii); experiment: Test A pre-/postemergence: foxtail, giant; conditions: for Foxtail, Giant plant response rating: Postemergence; for Plant response rating, Foxtail, Giant: Preemergence
How it was run: (§1)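 Injury is scored visually on a scale where 0 means no effect and 100 complete control, comparing treated with untreated plants after approximately ten greenhouse days. Both preemergence and postemergence applications are made at the same time.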

[2] = tested on: crabgrass, large (large crabgrass, Digitaria sanguinalis); experiment: Test A pre-/postemergence: crabgrass, large; conditions: for Crabgrass, Large plant response rating: Postemergence; for Plant response rating, Crabgrass, Large: Preemergence
How it was run: as §1

corn (Zea mays) = experiment: Test A pre-/postemergence: corn; conditions: for Corn plant response rating: Postemergence; for Plant response rating, Corn: Preemergence
How it was run: as §1

[3] = tested on: pigweed (Amaranthus retroflexus); experiment: Test A pre-/postemergence: pigweed; conditions: for Pigweed plant response rating: Postemergence; for Plant response rating, Pigweed: Preemergence
How it was run: as §1

[4] = tested on: ducksalad (Heteranthera limosa); experiment: Test C flooded paddy test: ducksalad; conditions: scale 0 to 100 (0 no effect, 100 complete control)
How it was run: (§2)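 Greenhouse plants treated at the 2-leaf stage by dosing the flood water (3 cm depth, maintained) were compared with controls after 13 to 15 days and rated 0 to 100, where 100 means complete control; a dash marks no test result.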

rice (Oryza sativa) = experiment: Test C flooded paddy test: rice; conditions: scale 0 to 100 (0 no effect, 100 complete control)
How it was run: as §2

[5] = tested on: morningglory (Ipomoea spp.); experiment: Test A pre-/postemergence: morningglory; conditions: for Morningglory plant response rating: Postemergence; for Plant response rating, Morningglory: Preemergence
How it was run: as §1

[6] = tested on: barnyardgrass (Echinochloa crus-galli); experiment: Test A pre-/postemergence: barnyardgrass; conditions: for Barnyardgrass plant response rating: Postemergence; for Plant response rating, Barnyardgrass: Preemergence
How it was run: as §1

[7] = tested on: sedge, umbrella (small-flower umbrella sedge, Cyperus difformis); experiment: Test C flooded paddy test: sedge, umbrella; conditions: scale 0 to 100 (0 no effect, 100 complete control)
How it was run: as §2

[8] = tested on: barnyardgrass (Echinochloa crus-galli); experiment: Test C flooded paddy test: barnyardgrass; conditions: scale 0 to 100 (0 no effect, 100 complete control)
How it was run: as §2

[9] = tested on: velvetleaf (Abutilon theophrasti); experiment: Test A pre-/postemergence: velvetleaf; conditions: for Velvetleaf plant response rating: Postemergence; for Plant response rating, Velvetleaf: Preemergence
How it was run: as §1

[10] = tested on: wheat (Triticum aestivum); experiment: Test A pre-/postemergence: wheat; conditions: for Wheat plant response rating: Postemergence; for Plant response rating, Wheat: Preemergence
How it was run: as §1

[11] = 125 g ai/ha, 0 to 100 scale, 0 is no effect, 100 is complete control
[12] = 500 g ai/ha, visual rating on 0 to 100 scale (0 no effect, 100 complete control), approximately ten days
[13] = 125 g ai/ha, 0 to 100 scale (0 no effect, 100 complete control)
[14] = 500 g ai/ha, 0 to 100 scale, 0 is no effect, 100 is complete control
[15] = Flood (flooded paddy test), 62 g ai/ha, visual rating after 13 to 15 days
[16] = Flood (flooded paddy test), 125 g ai/ha, visual rating after 13 to 15 days
[17] = Flood (flooded paddy test), 250 g ai/ha, visual rating after 13 to 15 days

Cc1nn(-c2ccc([N+](=O)[O-])cc2)nc1C(=O)c1cccc(C(F)(F)F)c1 [Compound 41]
Foxtail, Giant plant response rating [1, 11]: 10 | Foxtail, Giant plant response rating [1, 12]: 20 | Plant response rating, Foxtail, Giant [1, 13]: 40 | Plant response rating, Foxtail, Giant [1, 14]: 70 | Crabgrass, Large plant response rating [2, 11]: 10 | Crabgrass, Large plant response rating [2, 12]: 30 | Plant response rating, Crabgrass, Large [2, 13]: 20 | Plant response rating, Crabgrass, Large [2, 14]: 70 | Corn plant response rating (corn (Zea mays); [11]): 10 | Corn plant response rating (corn (Zea mays); [12]): 20 | Plant response rating, Corn (corn (Zea mays); [13]): 0 | Plant response rating, Corn (corn (Zea mays); [14]): 0 | Pigweed plant response rating [3, 11]: 30 | Pigweed plant response rating [3, 12]: 80 | Plant response rating, Pigweed [3, 13]: 20 | Plant response rating, Pigweed [3, 14]: 50 | Plant response rating, Ducksalad [4, 15]: 0 | Plant response rating, Ducksalad [4, 16]: 0 | Plant response rating, Ducksalad [4, 17]: 0 | Plant response rating, Ducksalad ([4]; Flood, 31 g ai/ha): 0 | Plant response rating, Rice (rice (Oryza sativa); [15]): 0 | Plant response rating, Rice (rice (Oryza sativa); [16]): 0 | Plant response rating, Rice (rice (Oryza sativa); [17]): 0 | Plant response rating, Rice (rice (Oryza sativa); Flood, 31 g ai/ha): 0 | Morningglory plant response rating [5, 11]: 10 | Morningglory plant response rating [5, 12]: 10 | Plant response rating, Morningglory [5, 13]: 0 | Plant response rating, Morningglory [5, 14]: 10 | Barnyardgrass plant response rating [6, 11]: 10 | Barnyardgrass plant response rating [6, 12]: 10 | Plant response rating, Barnyardgrass [6, 13]: 10 | Plant response rating, Barnyardgrass [6, 14]: 20 | Plant response rating, Sedge, Umbrella [7, 15]: 0 | Plant response rating, Sedge, Umbrella [7, 16]: 0 | Plant response rating, Sedge, Umbrella [7, 17]: 0 | Plant response rating, Sedge, Umbrella ([7]; Flood, 31 g ai/ha): 0 | Plant response rating, Barnyardgrass [8, 15]: 0 | Plant response rating, Barnyardgrass [8, 16]: 0 | Plant response rating, Barnyardgrass [8, 17]: 0 | Plant response rating, Barnyardgrass ([8]; Flood, 31 g ai/ha): 0 | Velvetleaf plant response rating [9, 11]: 10 | Velvetleaf plant response rating [9, 12]: 50 | Plant response rating, Velvetleaf [9, 13]: 10 | Plant response rating, Velvetleaf [9, 14]: 10 | Wheat plant response rating [10, 11]: 0 | Wheat plant response rating [10, 12]: 10 | Plant response rating, Wheat [10, 13]: 0 | Plant response rating, Wheat [10, 14]: 0

Cc1nn(-c2ccc(Cl)cc2)nc1C(=O)c1cccc(C(F)(F)F)c1 [Compound 42]
Foxtail, Giant plant response rating [1, 11]: 10 | Foxtail, Giant plant response rating [1, 12]: 20 | Plant response rating, Foxtail, Giant [1, 13]: 10 | Plant response rating, Foxtail, Giant [1, 14]: 70 | Crabgrass, Large plant response rating [2, 11]: 10 | Crabgrass, Large plant response rating [2, 12]: 30 | Plant response rating, Crabgrass, Large [2, 13]: 10 | Plant response rating, Crabgrass, Large [2, 14]: 50 | Corn plant response rating (corn (Zea mays); [11]): 10 | Corn plant response rating (corn (Zea mays); [12]): 10 | Plant response rating, Corn (corn (Zea mays); [13]): 0 | Plant response rating, Corn (corn (Zea mays); [14]): 0 | Pigweed plant response rating [3, 11]: 50 | Pigweed plant response rating [3, 12]: 90 | Plant response rating, Pigweed [3, 13]: 10 | Plant response rating, Pigweed [3, 14]: 60 | Plant response rating, Ducksalad [4, 15]: 0 | Plant response rating, Ducksalad [4, 17]: 0 | Plant response rating, Rice (rice (Oryza sativa); [15]): 0 | Plant response rating, Rice (rice (Oryza sativa); [17]): 0 | Morningglory plant response rating [5, 11]: 10 | Morningglory plant response rating [5, 12]: 50 | Plant response rating, Morningglory [5, 13]: 0 | Plant response rating, Morningglory [5, 14]: 10 | Barnyardgrass plant response rating [6, 11]: 0 | Barnyardgrass plant response rating [6, 12]: 10 | Plant response rating, Barnyardgrass [6, 13]: 0 | Plant response rating, Barnyardgrass [6, 14]: 10 | Plant response rating, Sedge, Umbrella [7, 15]: 0 | Plant response rating, Sedge, Umbrella [7, 17]: 0 | Plant response rating, Barnyardgrass [8, 15]: 0 | Plant response rating, Barnyardgrass [8, 17]: 0 | Velvetleaf plant response rating [9, 11]: 10 | Velvetleaf plant response rating [9, 12]: 20 | Plant response rating, Velvetleaf [9, 13]: 0 | Plant response rating, Velvetleaf [9, 14]: 0 | Wheat plant response rating [10, 11]: 0 | Wheat plant response rating [10, 12]: 10 | Plant response rating, Wheat [10, 13]: 0 | Plant response rating, Wheat [10, 14]: 0

Cc1nn(-c2ccc(C(F)(F)F)cc2)nc1C(=O)c1cccc(C(F)(F)F)c1 [Compound 45]
Foxtail, Giant plant response rating [1, 11]: 20 | Foxtail, Giant plant response rating [1, 12]: 50 | Plant response rating, Foxtail, Giant [1, 13]: 50 | Plant response rating, Foxtail, Giant [1, 14]: 60 | Crabgrass, Large plant response rating [2, 11]: 60 | Crabgrass, Large plant response rating [2, 12]: 70 | Plant response rating, Crabgrass, Large [2, 13]: 70 | Plant response rating, Crabgrass, Large [2, 14]: 70 | Corn plant response rating (corn (Zea mays); [11]): 10 | Corn plant response rating (corn (Zea mays); [12]): 20 | Plant response rating, Corn (corn (Zea mays); [13]): 0 | Plant response rating, Corn (corn (Zea mays); [14]): 0 | Pigweed plant response rating [3, 11]: 100 | Pigweed plant response rating [3, 12]: 100 | Plant response rating, Pigweed [3, 13]: 10 | Plant response rating, Pigweed [3, 14]: 20 | Plant response rating, Ducksalad [4, 15]: 0 | Plant response rating, Ducksalad [4, 16]: 0 | Plant response rating, Ducksalad [4, 17]: 0 | Plant response rating, Ducksalad ([4]; Flood, 31 g ai/ha): 0 | Plant response rating, Rice (rice (Oryza sativa); [15]): 0 | Plant response rating, Rice (rice (Oryza sativa); [16]): 0 | Plant response rating, Rice (rice (Oryza sativa); [17]): 0 | Plant response rating, Rice (rice (Oryza sativa); Flood, 31 g ai/ha): 0 | Morningglory plant response rating [5, 11]: 40 | Morningglory plant response rating [5, 12]: 80 | Plant response rating, Morningglory [5, 13]: 0 | Plant response rating, Morningglory [5, 14]: 10 | Barnyardgrass plant response rating [6, 11]: 10 | Barnyardgrass plant response rating [6, 12]: 10 | Plant response rating, Barnyardgrass [6, 13]: 0 | Plant response rating, Barnyardgrass [6, 14]: 10 | Plant response rating, Sedge, Umbrella [7, 15]: 0 | Plant response rating, Sedge, Umbrella [7, 16]: 0 | Plant response rating, Sedge, Umbrella [7, 17]: 0 | Plant response rating, Sedge, Umbrella ([7]; Flood, 31 g ai/ha): 0 | Plant response rating, Barnyardgrass [8, 15]: 0 | Plant response rating, Barnyardgrass [8, 16]: 0 | Plant response rating, Barnyardgrass [8, 17]: 0 | Plant response rating, Barnyardgrass ([8]; Flood, 31 g ai/ha): 0 | Velvetleaf plant response rating [9, 11]: 40 | Velvetleaf plant response rating [9, 12]: 70 | Plant response rating, Velvetleaf [9, 13]: 0 | Plant response rating, Velvetleaf [9, 14]: 10 | Wheat plant response rating [10, 11]: 10 | Wheat plant response rating [10, 12]: 20 | Plant response rating, Wheat [10, 13]: 0 | Plant response rating, Wheat [10, 14]: 0
